Measured values from paper PMC6891756, “Synthesis and Biological Evaluation of Novel Aminochalcones as Potential Anticancer and Antimicrobial Agents” (Molecules, 2019).
≈ marks a conversion by molar mass, not a printed value.

Tests used:
[1] = test system: HT-29; assay: SRB antiproliferative assay, HT-29; assay type: cell-based, human; settings: Homo sapiens, HT-29; SRB, 48 h, 1–100 µg·mL^−1; ND = not detected in the tested concentration range
Description: (§1) Anticancer activity was evaluated using the sulforhodamine B assay (SRB) on four different human colon cancer cell lines: HT-29, LS180, LoVo and LoVo/DX and green monkey kidney fibroblasts COS7 (ATCC, Manassas, VA, USA). Cell lines HT-29 and COS7 were cultured in α-MEM medium (IIET PAS, Wrocław, Poland), LS180 in OptiMEM medium (IIET PAS), LoVo and LoVo/DX in mixture of α-MEM and OptiMEM medium (1:1 (v:v)). Each culture medium was supplemented with 10% fetal bovine serum, 2 mM glutamine, 100 μg·mL^−1 penicillin, 100 μg·mL^−1 streptomycin and 0.25 μg·mL^−1 amphotericin (all supplements purchased from Gibco (Paisley, UK). Cells were incubated at 37 °C, 5% CO2 in HeraCELL 150i incubator (Thermo Fisher Scientific, Waltham, MA, USA).
(§2) For the SRB assay, cells were seeded onto 96-well plates (Sarstedt, Nümbrecht, Germany) at a density of 5·10^3/well and cultured overnight as described above. Then, the growth medium was gently removed and replaced with fresh medium, supplemented with aminochalcone derivatives in the concentration ranging from 1 µg·mL^−1 to 100 µg·mL^−1. All stock solutions were prepared in DMSO at a concentration of 10 mg·mL^−1. Cells were incubated for 48 h and then the SRB assay was performed as described previously. Each experiment was performed in quadruplicate. The final results were reported as the IC50 values calculated for three independent experiments. Cisplatin (Acros Organics, Waltham, MA, USA) and doxorubicin (Fisher BioReagents, Waltham, MA, USA) were used as positive controls of the test.

[2] = test system: LS180; assay: SRB antiproliferative assay, LS180; assay type: cell-based, human; settings: Homo sapiens, LS180, 48 h, 1–100 µg·mL^−1, ND = not detected in the tested concentration range
Description: as §1, §2

[3] = test system: LoVo; assay: SRB antiproliferative assay, LoVo; assay type: cell-based, human; settings: Homo sapiens, LoVo, 48 h, 1–100 µg·mL^−1, ND = not detected in the tested concentration range
Description: as §1, §2

[4] = test system: LoVo/DX; assay: SRB antiproliferative assay, LoVo/DX; assay type: cell-based, human; settings: Homo sapiens, LoVo/DX, 48 h, 1–100 µg·mL^−1, ND = not detected in the tested concentration range
Description: as §1, §2

[5] = SRB assay, normal fibroblasts COS7; assay type: cell-based, green monkey; settings: green monkey, COS7 kidney fibroblasts (normal cell line), ND = not detected in the tested concentration range
Description: as §1, §2

[6] = test system: Escherichia coli ATCC10536; assay: Microbial growth curve screening, E. coli; assay type: cell-based; settings: 0.1% (w/v), OD at 560 nm, control 1.61
Description: (§3) The antimicrobial screening tests were performed on two strains of bacteria: E. coli ATCC10536 and S. aureus DSM799, strain of yeast C. albicans DSM1386 and three strains of fungi: F. linii KB-F1, A. alternata CBS1526 and A. niger DSM1957. All microorganisms were obtained from the collection of the Faculty of Biotechnology and Food Microbiology, Wrocław University of Environmental and Life Sciences. The bacteria were cultured in nutrient broth (Biocorp, Warsaw, Poland), yeast and fungi in YM medium (3 g yeast extract, 3 g malt extract, 5 g bacteriological peptone and 10 g of glucose dissolved in 1 L of distilled water). The tests were carried out in 100-well microtiter plates. To each well 280 μL of culture medium, 10 μL of microorganism suspension and 10 μL of aminochalcone (1–18) dissolved in dimethyl sulfoxide (3% (w/v)) were added. The final concentration of the tested compound (1–18) was 0.1% (w/v). Each experiment were performed in 3 replications. The optical density of the cell suspension was measured on Bioscreen C (Automated Growth Curve Analysis System Lab System, Vantaa, Finland) at 560 nm automatically, at regular intervals of 30 min for 2–3 days. Cell cultures were maintained at 28 °C on a continuous shaker. To prepare the growth curves for each strain, the mean values of the absorbance in a function of time were used. The resulting antimicrobial activity was expressed as the increase of optical density (ΔOD) and was compared to that of the control cultures in the medium supplemented with dimethyl sulfoxide and also with reference substances: oxytetracycline (against bacteria), cycloheximide (against yeast) and nystatin (against fungi) (Sigma Aldrich).

[7] = test system: Staphylococcus aureus DSM799; assay: Microbial growth curve screening, S. aureus; assay type: cell-based; settings: 0.1% (w/v); for ∆OD S. aureus: OD at 560 nm, control 1.67; for Lag-phase S. aureus: control 2.5 h
Description: as §3

[8] = test system: Candida albicans DSM1386; assay: Microbial growth curve screening, C. albicans; assay type: cell-based; settings: 0.1% (w/v); for ∆OD C. albicans: OD at 560 nm, control 1.58; for Lag-phase C. albicans: control 3.0 h
Description: as §3

[9] = test system: Alternaria alternata CBS1526; assay: Microbial growth curve screening, A. alternata; assay type: cell-based; settings: 0.1% (w/v); for ∆OD A. alternata: OD at 560 nm, control 1.86; for Lag-phase A. alternata: control 16.5 h
Description: as §3

[10] = test system: Fusarium linii KB-F1; assay: Microbial growth curve screening, F. linii; assay type: cell-based; settings: 0.1% (w/v); for ∆OD F. linii: OD at 560 nm, control 1.95; for Lag-phase F. linii: control 13.5 h
Description: as §3

[11] = test system: Aspergillus niger DSM1957; assay: Microbial growth curve screening, A. niger; assay type: cell-based; settings: 0.1% (w/v); for ∆OD A. niger: OD at 560 nm, control 2.14; for Lag-phase A. niger: control 11.0 h
Description: as §3

[12] = test system: Escherichia coli ATCC10536; assay: MIC evaluation (broth method), E. coli; assay type: cell-based; settings: 48–72 h, read-out: Minimal inhibitory concentration E. coli
Description: (§4) Sterile 96-well microtiter plates (Sarstedt) with nutrient broth (for bacteria) (Biocorp) or YM medium (for yeast and filamentous fungi) were inoculated with a standardized cell suspension of bacteria and yeast or fungal spores of 10^5 cell·mL^−1, and supplemented with aminochalcones dissolved in DMSO. […] All analysis were conducted in triplicates. The plates were incubated at 30 °C (bacteria and yeast) or 25 °C (filamentous fungi) for 48–72 h. The results were measured with the Spark® Multimode Microplate Reader (Tecan, Männedorf, Switzerland) at a 560 nm wavelength. The minimal inhibitory concentration was defined as the lowest concentration of a tested compound that completely restricted the growth of the microorganism. In order to verify the obtained results, microbial cultures subjected to each concentration of aminochalcone were inoculated onto nutrient agar or YM plates and incubated as described above. The lack of growth on agar plate was a confirmation of the MIC of the tested compound. The resulting MIC values were compared with the reference substances: oxytetracycline (against bacteria), cycloheximide (against yeast) and nystatin (against fungi) (Sigma Aldrich).

[13] = test system: Staphylococcus aureus DSM799; assay: MIC evaluation (broth method), S. aureus; assay type: cell-based; settings: 48–72 h, read-out: Minimal inhibitory concentration S. aureus
Description: as §4

[14] = test system: Candida albicans DSM1386; assay: MIC evaluation (broth method), C. albicans; assay type: cell-based; settings: DSM1386, read-out: Minimal inhibitory concentration C. albicans
Description: as §4

SMILES | IC50 [1] | IC50 [2] | IC50 [3] | IC50 [4] | IC50 at 48 h [5] | ∆OD E. coli [6] | ∆OD S. aureus [7] | Lag-phase S. aureus [7] | ∆OD C. albicans [8] | Lag-phase C. albicans [8] | ∆OD A. alternata [9] | Lag-phase A. alternata [9] | ∆OD F. linii [10] | Lag-phase F. linii [10] | ∆OD A. niger [11] | Lag-phase A. niger [11] | MIC [12] | melting point | MIC [13] | MIC [14]
CCc1ccc(/C=C/C(=O)c2ccccc2N)cc1 [Compound 4, 2′-Amino-4-ethylchalcone] | 3.98 ± 0.03 µg/mL (≈ 15.8 µM) | 5.1 ± 0.65 µg/mL (≈ 20.3 µM) | 4.77 ± 0.37 µg/mL (≈ 19 µM) | 4.78 ± 0.19 µg/mL (≈ 19 µM) | 9.57 ± 0.52 µg/mL (≈ 38.1 µM) | 0.0 | 0.84 | 32.5 h | 0.98 | 6.0 h | 0.40 | 26.5 h | 1.04 | 7.5 h | 0.60 | 30.0 h | 0.5 µg/mL (≈ 1.99 µM) | 34 to 36 °C | – | –
CCc1ccc(/C=C/C(=O)c2cccc(N)c2)cc1 [Compound 5, 3′-Amino-4-ethylchalcone] | 3.43 ± 0.05 µg/mL (≈ 13.6 µM) | 4.16 ± 0.12 µg/mL (≈ 16.6 µM) | 1.79 ± 0.1 µg/mL (≈ 7.12 µM) | 2.35 ± 0.08 µg/mL (≈ 9.35 µM) | 4.42 ± 0.27 µg/mL (≈ 17.6 µM) | 0.0 | 0.98 | 29.5 h | 0.61 | 9.5 h | 0.39 | 12.0 h | 0.80 | 8.0 h | 0.36 | 25.5 h | 1 µg/mL (≈ 3.98 µM) | – | – | –
Nc1cccc(C(=O)/C=C/c2ccc(C(=O)O)cc2)c1 [Compound 8, 3′-Amino-4-carboxychalcone] | 12.3 ± 0.32 µg/mL (≈ 46.1 µM) | 9.22 ± 0.72 µg/mL (≈ 34.5 µM) | 31.5 ± 0.13 µg/mL (≈ 118 µM) | 27.44 ± 0.11 µg/mL (≈ 103 µM) | 15.9 ± 1.04 µg/mL (≈ 59.6 µM) | 0.0 | 0.0 | – | 0.28 | 23.0 h | 1.14 | 26.0 h | 0.45 | 13.0 h | 1.11 | 39.0 h | 0.125 µg/mL (≈ 0.468 µM) | – | 0.125 µg/mL (≈ 0.468 µM) | –
Nc1ccc(C(=O)/C=C/c2ccc(C(=O)O)cc2)cc1 [Compound 9, 4′-Amino-4-carboxychalcone] | 32.4 ± 0.99 µg/mL (≈ 121 µM) | 18.4 ± 0.19 µg/mL (≈ 68.7 µM) | 73.5 ± 0.98 µg/mL (≈ 275 µM) | 66.2 ± 1.32 µg/mL (≈ 248 µM) | 32 ± 8.11 µg/mL (≈ 120 µM) | 0.0 | 0.35 | 37.0 h | 0.97 | 8.5 h | 1.12 | 12.5 h | 0.99 | 13.5 h | 0.51 | 35.0 h | 0.125 µg/mL (≈ 0.468 µM) | – | – | –
Nc1cccc(C(=O)/C=C/c2ccc(OCc3ccccc3)cc2)c1 [Compound 14, 3′-Amino-4-benzyloxychalcone] | 7.54 ± 0.18 µg/mL (≈ 22.9 µM) | 6.51 ± 0.62 µg/mL (≈ 19.8 µM) | – | 5.19 ± 0.41 µg/mL (≈ 15.8 µM) | 7.61 ± 0.43 µg/mL (≈ 23.1 µM) | 0.0 | – | 33.5 h | – | 4.5 h | – | 12.0 h | – | 6.0 h | – | 20.5 h | 0.0625 µg/mL (≈ 0.19 µM) | 115 to 120 °C | – | –
Nc1ccc(C(=O)/C=C/c2ccc(OCc3ccccc3)cc2)cc1 [Compound 15, 4′-Amino-4-benzyloxychalcone] | 7.83 ± 0.14 µg/mL (≈ 23.8 µM) | 8.23 ± 0.49 µg/mL (≈ 25 µM) | 7.64 ± 0.53 µg/mL (≈ 23.2 µM) | 6.66 ± 0.48 µg/mL (≈ 20.2 µM) | 13.4 ± 2.78 µg/mL (≈ 40.6 µM) | 0.0 | 0.22 | 8.0 h | 0.37 | 16.0 h | 1.04 | 19.5 h | 0.50 | 11.5 h | 0.57 | 25.0 h | 0.125 µg/mL (≈ 0.379 µM) | – | – | –
COc1cc(/C=C/C(=O)c2ccc(N)cc2)ccc1OCc1ccccc1 [Compound 18, 4′-Amino-4-benzyloxy-3-methoxychalcone] | 5.01 ± 0.49 µg/mL (≈ 13.9 µM) | 4.59 ± 0.29 µg/mL (≈ 12.8 µM) | 3.54 ± 0.3 µg/mL (≈ 9.85 µM) | – | – | 0.0 | 0.26 | 33.5 h | 0.68 | 4.5 h | 0.22 | 21.5 h | 0.41 | 6.5 h | 0.65 | 28.5 h | 0.5 µg/mL (≈ 1.39 µM) | – | – | –
COc1cccc2c1C(=O)c1c(O)c3c(c(O)c1C2=O)C[C@@](O)(C(=O)CO)C[C@@H]3O[C@H]1C[C@H](N)[C@H](O)[C@H](C)O1 [Compound 20, Doxorubicin, reference compound] | 0.33 ± 0.02 µg/mL (≈ 0.607 µM) | 0.05 ± 0.02 µg/mL (≈ 0.092 µM) | 0.73 ± 0.18 µg/mL (≈ 1.34 µM) | 5.32 ± 1.44 µg/mL (≈ 9.79 µM) | 3.55 ± 1.15 µg/mL (≈ 6.53 µM) | – | – | – | – | – | – | – | – | – | – | – | – | – | – | –
C[C@@H]1C[C@@H]([C@H](O)CC2CC(=O)NC(=O)C2)C(=O)[C@@H](C)C1 [Cycloheximide, reference compound] | – | – | – | – | – | – | – | – | 0.0 | – | – | – | – | – | – | – | – | – | – | 0.5 µg/mL (≈ 1.78 µM)
CN(C)[C@@H]1C(O)=C(C(N)=O)C(=O)[C@@]2(O)C(O)=C3C(=O)c4c(O)cccc4[C@@](C)(O)[C@H]3[C@H](O)[C@@H]12 [Oxytetracycline, reference compound] | – | – | – | – | – | 0.0 | 0.0 | – | – | – | – | – | – | – | – | – | 0.5 µg/mL (≈ 1.09 µM) | – | 0.125 µg/mL (≈ 0.271 µM) | –
